From US9624286B2, “Composition comprising peptide derived from adiponectin” (KNU-INDUSTRY COOPERATION FOUNDATION, priority 2013, dated 2017)

How the values were obtained:
[1] = system: profilaggrin; assay: Control of the profilaggrin expression in human keratinocyte cell line HaCaT (Western blotting); format: cell-based; conditions: HaCaT cells, peptide 0.1, 1.0 and 10 μM, 48 hours, concentration-dependent, FIG. 3
Protocol: Since profilaggrin is one of the principal elements for constituting skin barrier, we evaluate whether the profilaggrin synthesis in keratinocytes is facilitated by the treatment of the peptides of the present invention, using the HaCaT cells (human keratinocyte cell line, DKFZ, Heidelberg, Germany). The HaCaT cells were treated with the peptides of SEQ ID NOs: 3 and 5, in the concentrations of 0.1, 1.0 and 10 μM. After 48 hours, the cell extracts were subject to the Western blotting assay so as to measure the expressions of profilaggrin. […] Therefore, it can be seen that the peptides of the present invention have a skin-moisturizing activity through facilitating the profilaggrin expression.

[2] = system: NIH3T3 cells; assay: Tests for facilitating the proliferation of mouse fibroblast cell line NIH3T3 (CCK-8); format: cell-based; conditions: peptide 10 μM; 24, 48 and 72 hours; CCK-8 absorbance at 475 nm; FIG. 1
Protocol: The NIH3T3 cells (mouse fibroblast cell line, ATCC CRL-1658, USA), along with 100 μl of Dulbecco's Modified Eagle medium (DMEM), were added to each well of the 96-well microplate in the concentration of 5×10^3 cells per well, and then cultured in a 5% CO2 incubator at 37° C. for 24 hours. The peptide solutions (100 μl) having the respective peptide of SEQ ID NOs: 1, 2, 3 and 5 in the concentration of 10 μM were added to each well. While incubating the cells for 24, 48, and 72 hours therefrom, 10 μl of CCK-8 (Dojindo Laboratories, Japan) was added to each well and then the respective absorbance at 475 nm was measured with Spectramax plus 190 plate reader (Molecular Devices, USA).

[3] = system: procollagen type-1; assay: Activation of the procollagen type-1 expression in fibroblasts (Western blotting); format: cell-based, mouse; conditions: NIH3T3 cells, peptide 0.1, 1 and 10 μM, 48 hours, concentration-dependent, FIG. 2
Protocol: Since facilitation of the collagen fiber synthesis is one of the principal means for inhibiting skin aging, we evaluate whether the collagen synthesis in fibroblasts is facilitated by the treatment of the peptides of the present invention, using the NIH3T3 cells (mouse fibroblast cell line, ATCC CRL-1658, USA). The fibroblasts were treated with the peptides of SEQ ID NOs: 1, 2, 3 and 5, in the concentrations of 0.1, 1 and 10 μM, respectively. After 48 hours, the cell extracts were subject to the Western blotting assay so as to measure the expressions of procollagen type-1. […] Therefore, it can be seen that the peptides of the present invention can inhibit skin aging derived from loss of collagen, especially skin wrinkle.

Substance: Leu-Phe-Thr-Tyr-Asp (LFTYD; Peptide fragment) [SEQ ID NO: 3, adiponectin-derived peptide fragment]
- expressions of profilaggrin [1]: increased
- proliferations of NIH3T3 cells [2]: significantly increased
- expressions of procollagen type-1 [3]: increased

Substance: His-Ile-Thr (HIT; Peptide fragment) [SEQ ID NO: 2, adiponectin-derived peptide fragment]
- proliferations of NIH3T3 cells [2]: significantly increased
- expressions of procollagen type-1 [3]: increased

Substance: Tyr-His-Ile-Thr (YHIT; Peptide fragment) [SEQ ID NO: 1, adiponectin-derived peptide fragment]
- proliferations of NIH3T3 cells [2]: significantly increased
- expressions of procollagen type-1 [3]: increased

Substance: Phe-Thr-Tyr (FTY; Peptide fragment) [SEQ ID NO: 5, adiponectin-derived peptide fragment]
- expressions of profilaggrin [1]: increased
- proliferations of NIH3T3 cells [2]: significantly increased
- expressions of procollagen type-1 [3]: increased
